Experimental data: article PMC10226132, “First-in-Class Selective Inhibitors of the Lysine Acetyltransferase KAT8” (Journal of Medicinal Chemistry, 2023)

Experiments:
Assay type in all cases: biochemical
[1] = target: T1, KDAC8 (Homo sapiens, UniProt Q9BY41); assay: KDAC inhibition assay, KDAC8; settings: mean of three technical replicates
T1 sequence (Q9BY41 1-377): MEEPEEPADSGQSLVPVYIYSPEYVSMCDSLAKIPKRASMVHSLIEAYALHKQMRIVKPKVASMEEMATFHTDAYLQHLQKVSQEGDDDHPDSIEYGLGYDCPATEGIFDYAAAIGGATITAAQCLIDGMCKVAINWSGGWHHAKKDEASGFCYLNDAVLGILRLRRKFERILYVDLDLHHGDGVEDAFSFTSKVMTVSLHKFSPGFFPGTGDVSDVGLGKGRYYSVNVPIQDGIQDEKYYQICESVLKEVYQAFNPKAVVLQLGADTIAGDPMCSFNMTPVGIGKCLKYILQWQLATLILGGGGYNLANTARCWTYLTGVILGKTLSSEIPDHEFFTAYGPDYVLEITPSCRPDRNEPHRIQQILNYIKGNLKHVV
Procedure: (§1) KDAC1, 2, 3 6, and 8 inhibition assays were performed as described previously.[52] Briefly, the relevant human recombinant KDAC was diluted in an assay buffer with the following composition: 150 mM NaCl, 25 mM Tris–HCl (pH 8.0), 2.7 mM KCl, and 1 mM MgCl2; BSA (0.1 mg/mL) was also added in the case of KDAC1. Forty microliters of this solution were added to 10 μL of each inhibitor ([…]) and 50 μL of KDAC Assay substrate (Boc-Lys-(Ac)-AMC, 7–100 μM final concentration, depending on the KDAC isoform), and the resulting solution was mixed. […] After thorough mixing of the resulting solution, the plate was covered and incubated at 37 °C for 25 min and the fluorescence (λemission = 460 nm; λexcitation = 390 nm) was measured on a EnSight Multimode Plate Reader (Perkin Elmer). The shown values are average of three technical replicates ± SD.

[2] = target: T2, KDAC6 (Homo sapiens, UniProt Q9UBN7); assay: KDAC inhibition assay, KDAC6; settings: mean of three technical replicates
T2 sequence (Q9UBN7 1-1215): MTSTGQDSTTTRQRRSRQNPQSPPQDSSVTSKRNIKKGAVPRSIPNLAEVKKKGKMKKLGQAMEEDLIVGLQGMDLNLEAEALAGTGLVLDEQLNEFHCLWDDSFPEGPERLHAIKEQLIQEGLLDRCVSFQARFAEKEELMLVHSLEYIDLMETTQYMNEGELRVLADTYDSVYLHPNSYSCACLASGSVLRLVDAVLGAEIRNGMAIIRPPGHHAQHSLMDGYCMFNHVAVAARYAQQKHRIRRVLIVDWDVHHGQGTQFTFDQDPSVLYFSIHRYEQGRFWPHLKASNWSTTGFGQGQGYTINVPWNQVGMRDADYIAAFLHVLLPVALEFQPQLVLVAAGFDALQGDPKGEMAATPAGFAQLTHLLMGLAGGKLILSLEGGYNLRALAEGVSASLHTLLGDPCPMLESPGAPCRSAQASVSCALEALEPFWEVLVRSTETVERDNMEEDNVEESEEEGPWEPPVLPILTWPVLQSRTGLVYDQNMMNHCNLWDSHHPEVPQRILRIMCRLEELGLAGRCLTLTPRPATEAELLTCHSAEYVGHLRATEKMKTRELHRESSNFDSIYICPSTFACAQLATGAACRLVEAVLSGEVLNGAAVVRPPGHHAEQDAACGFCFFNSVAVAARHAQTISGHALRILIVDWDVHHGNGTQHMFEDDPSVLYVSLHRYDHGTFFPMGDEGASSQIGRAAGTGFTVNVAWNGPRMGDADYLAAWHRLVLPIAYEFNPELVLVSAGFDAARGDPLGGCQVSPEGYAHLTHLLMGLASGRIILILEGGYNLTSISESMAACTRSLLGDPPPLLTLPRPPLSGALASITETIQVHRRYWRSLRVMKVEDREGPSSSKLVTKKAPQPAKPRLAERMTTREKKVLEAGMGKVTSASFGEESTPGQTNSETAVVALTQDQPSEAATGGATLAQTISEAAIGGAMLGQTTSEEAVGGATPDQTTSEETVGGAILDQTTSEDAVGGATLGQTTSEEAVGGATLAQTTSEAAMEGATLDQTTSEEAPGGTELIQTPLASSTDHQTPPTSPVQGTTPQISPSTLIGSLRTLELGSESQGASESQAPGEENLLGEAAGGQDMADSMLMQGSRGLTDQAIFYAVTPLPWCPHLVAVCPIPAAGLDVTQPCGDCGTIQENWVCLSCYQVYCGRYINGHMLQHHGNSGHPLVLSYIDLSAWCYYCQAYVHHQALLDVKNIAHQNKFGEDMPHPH
Procedure: as §1

[3] = target: T3, KAT7 (Homo sapiens, UniProt O95251); assay: HotSpot KAT assay, KAT7; settings: for inhibition at 200 µM: read-out: % inhibition at 200 μM KAT7 (25 nM), NI = no inhibition
T3 construct: full length human KAT5 (25 nM) and KAT7 (25 nM) were used; purchased Reaction Biology Corporation
Procedure: The effects of the compounds on other KATs were determined using the HotSpot KAT assay (Reaction Biology Corporation, Malvern, PA, USA) according to the supplier’s procedure. The recombinant catalytic domains of human KAT2A (aa 323–837, 15 nM), KAT2B (aa 492–658, 25 nM), KAT3B (aa 1284–1672, 1 nM), KAT6A (aa 488–778, 10 nM), KAT6B (aa 657–1069, 10 nM), and full length human KAT5 (25 nM) and KAT7 (25 nM) were used. Each enzyme was incubated with the relevant histone peptide [H3 peptide for KAT2A, KAT2B, KAT3B, KAT6A, and KAT7 (2.5–5 μM, depending on the KAT isoform); H2A peptide for KAT5 (1.25 μM); H4 peptide for KAT6B (2.5 μM)] as a substrate and radio-isotope-labeled [^3H]Acetyl-CoA (0.2–1.5 μM, depending on the KAT isoform) as an acetyl donor in the assay buffer [50 mM Tris–HCl (pH 8.0), 50 mM NaCl, 0.1 mM EDTA, 1 mM DTT, 0.1 mM PMSF, 1% DMSO] for 1 h at 30 °C in the presence or absence of various compounds (1% DMSO final) titrated in a 2-fold serial dilution starting at 200 μM. Histone peptide acetylation was assessed by liquid scintillation counting using a Tri-Carb 2800TR Liquid Scintillation Analyzer (Perkin Elmer). Experiments were performed in biological triplicates. Signal reduction compared to control was plotted (as inhibition percentage) as a function of compound concentration. In cases in which an IC50 was calculated, the values were fitted by nonlinear regression (GraphPad Prism 8.0).

T3 sequence (O95251 whole entry): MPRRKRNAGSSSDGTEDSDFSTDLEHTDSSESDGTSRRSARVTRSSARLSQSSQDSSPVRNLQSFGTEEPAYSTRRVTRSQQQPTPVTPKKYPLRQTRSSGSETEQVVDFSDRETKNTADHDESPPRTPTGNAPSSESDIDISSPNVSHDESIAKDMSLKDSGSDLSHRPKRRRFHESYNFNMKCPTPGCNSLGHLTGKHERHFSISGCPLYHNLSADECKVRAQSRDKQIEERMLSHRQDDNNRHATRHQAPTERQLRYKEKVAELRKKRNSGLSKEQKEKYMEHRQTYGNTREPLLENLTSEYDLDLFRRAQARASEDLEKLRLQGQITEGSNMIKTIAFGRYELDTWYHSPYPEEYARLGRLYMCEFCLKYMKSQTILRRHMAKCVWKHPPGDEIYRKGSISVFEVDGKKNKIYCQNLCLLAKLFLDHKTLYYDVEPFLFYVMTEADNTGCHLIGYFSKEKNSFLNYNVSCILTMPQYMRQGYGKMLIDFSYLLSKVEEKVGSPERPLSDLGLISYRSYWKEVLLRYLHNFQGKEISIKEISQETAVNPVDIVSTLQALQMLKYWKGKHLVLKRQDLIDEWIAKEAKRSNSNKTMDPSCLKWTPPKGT

Row | Compound | inhibition at 50 µM [1] | inhibition at 100 µM [1] | inhibition at 50 µM [2] | inhibition at 100 µM [2] | inhibition at 200 µM [3] | IC50 ([3]; control compound, read-out: IC50 KAT7 (25 nM))
1 | O=C(O)c1ccc(N2N=C(c3ccccc3)/C(=C/c3ccc[nH]3)C2=O)cc1 [Compound 34, (Z)-4-(4-((1H-Pyrrol-2-yl)methylene)-5-oxo-3-phenyl-4,5-dihydro-1H-pyrazol-1-yl)benzoic Acid] | 0.04% | 0.6% | 0.6% | 2.1% | 16.9 ± 0.7% | 
2 | CC1=NN(c2ccc(C(=O)O)cc2)C(=O)/C1=C\c1ccc[nH]1 [Compound 19, (Z)-4-(4-((1H-Pyrrol-2-yl)methylene)-3-methyl-5-oxo-4,5-dihydro-1H-pyrazol-1-yl)benzoic Acid] | 0.02% | 0.8% | 0.4% | 1.3% | 0% | 
3 | CC1=NN(c2ccc(C(=O)O)cc2)C(=O)/C1=C\c1ccc(-c2cc(C)c(C)cc2[N+](=O)[O-])o1 [VII (C646), reference compound] | 77.6% | 89.1% | 87.2% | 98.1% |  | 8 µM
